The results in this text go back to patent publication US12139473B2, “Substituted-N-heteroaryl compounds and uses thereof” (Bionomics Limited, priority 2019, dated 2024).

The target of this test is T1, hKv3.1 (Homo sapiens, UniProt P48547).
T1 construct: expressed in transfected cells
T1 sequence (P48547 1-511): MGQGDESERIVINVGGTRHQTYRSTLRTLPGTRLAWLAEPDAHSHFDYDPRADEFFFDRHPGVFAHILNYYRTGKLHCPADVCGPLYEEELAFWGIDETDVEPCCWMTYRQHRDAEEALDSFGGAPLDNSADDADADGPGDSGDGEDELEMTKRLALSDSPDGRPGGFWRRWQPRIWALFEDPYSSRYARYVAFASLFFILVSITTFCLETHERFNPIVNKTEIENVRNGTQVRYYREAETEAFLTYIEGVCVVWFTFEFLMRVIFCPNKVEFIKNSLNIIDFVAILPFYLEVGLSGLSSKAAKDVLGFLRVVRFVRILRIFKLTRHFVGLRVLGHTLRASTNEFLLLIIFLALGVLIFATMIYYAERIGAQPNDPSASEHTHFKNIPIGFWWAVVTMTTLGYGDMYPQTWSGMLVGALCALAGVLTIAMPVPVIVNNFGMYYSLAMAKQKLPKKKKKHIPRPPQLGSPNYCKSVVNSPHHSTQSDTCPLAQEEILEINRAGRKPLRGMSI
In words: Automated patch clamp electrophysiology (Patchliner), CHO/Kv3.1 cells. As to conditions: 10 μM compound, hKv3.1 in CHO-K1, whole-cell; for Kv3.1 Activity at 10 μM Potentiation (%): peak current at voltage step of −10 mV vs vehicle (0.33% DMSO); for Kv3.1 Activity at 10 μM Voltage Shift (mV): voltage shift of the IV curve at V1/2. The format is cell-based. The protocol:
hKv3.1, hKv3.2, hKv3.3, and hKv3.4 were stably expressed in CHO-K1 (Chinese hamster ovary) cells and kept under constant antibiotic selection. For in vitro assays, cells were maintained in appropriate growth medium at 37° C. and 5% CO2 in a humidified incubator.
hKv3.X expressing cells were plated in T-25 flasks for 3-4 days at 37° C. (no selection antibiotic) prior to use and grown to 80% confluence. Cells were washed twice with PBS (calcium and magnesium free) and detached with a 5-minute treatment at 37° C. with 2-3 mls of Accutase®. Cells were collected, and flask was washed in CHO-SFM II media (Life Technologies Gibco), centrifuged for 2 minutes at ˜110×g and resuspended to obtain a single cell suspension of ˜2-3×10^6 cells/ml.
The intracellular solution contained the following (in mM): KCl 50, NaCl 10, KF 60, EGTA 20, HEPES 10, adjusted to pH 7.2 with KOH and an osmolarity of 285 mOsmol. Seal enhancer was purchased from Nanion (80 mM NaCl, 3 mM KCl, 10 mM MgCl2, 35 mM CaCl2), 10 mM HEPES, pH7.4, 298 mOsmol. The external solution contained (in mM): NaCl 140, KCl 4, CaCl2) 2, MgCl2 1, HEPES 10, Glucose 5, adjusted to pH7.4 and an osmolarity of 298 mOsmol.
All compounds were initially tested at 10 uM at a final DMSO concentration of 0.33%. Compounds were dissolved in dimethylsulfoxide (DMSO) at a stock concentration of 30 mM. The compound was further diluted 1:10 to give a stock concentration of 3 mM in DMSO. The final assay solution was diluted 1:300 in External solution to give a final concentration of 10 uM. For the DMSO Control Buffer 30 uL of DMSO was added to 10 mL buffer.
All electrophysiological recordings were performed at ambient temperature (21-23° C.) using automated patch clamp (Patchliner, Nanion Technologies GmbH) in the whole-cell configuration.
Cell membrane potentials were held at −80 mV, and currents were evoked by voltage steps (1000 ms duration) from −60 to +60 mV in 10 mV increments. This was performed first with vehicle (0.33% DMSO) and then with 10 uM compound, after a 3-minute incubation period. Data was taken from 4 cells per assay.
The recordings were analysed and selected using peak current amplitude (>100 pA at the −10 mV voltage step) in the absence of compound to eliminate unsuitable cells from analysis. Peak current amplitude was measured and recorded for each voltage step and data was normalised to the maximum current at +60 mV. The normalised Kv3.x currents following addition of the compound were then compared with the currents recorded prior to compound addition (vehicle control). Positive modulation was determined as % potentiation at the voltage step of −10 mV=[current (cmpd)/current (veh)]*100−100. % potentiation≥50% was considered acceptable. In addition, voltage shift of the IV curve at V1/2 was measured. V1/2 of ≥−5 mV was also considered acceptable. IV curves were plotted in GraphPad Prism (software version 6.0) and fitted with a Boltzmann equation, where V1/2 is the voltage at half-maximal activation.
A general note: In patch-clamp work, channel activity is measured electrically.

As for `CCc1cc(Oc2cc(N3C(=O)NC(C)(C)C3=O)ncn2)ccc1C` [Example 30, 3-[6-(3-ethyl-4-methylphenoxy)pyrimidin-4-yl]-5,5-dimethyl-imidazolidine-2,4-dione], the “Kv3.1 Activity at 10 μM Potentiation (%)” value amounted to 63% and the “Kv3.1 Activity at 10 μM Voltage Shift (mV)” value is recorded as −2.1 mV.
The matching figures for `CC1(C)NC(=O)N(c2cc(Oc3ccc4c(c3)CCC4)ncn2)C1=O` [Example 31, 3-(6-indan-5-yloxypyrimidin-4-yl)-5,5-dimethyl-imidazolidine-2,4-dione]: 65% and −3.3 mV.
The matching figures for `CC1(C)NC(=O)N(c2cc(Oc3cccc4c3CCC4)ncn2)C1=O` [Example 32, 3-(6-indan-4-yloxypyrimidin-4-yl)-5,5-dimethyl-imidazolidine-2,4-dione]: 13% and −1.3 mV.
In the case of `CC1(C)NC(=O)N(c2cc(Oc3ccc4c(c3)OCCC4)ncn2)C1=O` [Example 33, 3-(6-chroman-7-yloxypyrimidin-4-yl)-5,5-dimethyl-imidazolidine-2,4-dione], the “Kv3.1 Activity at 10 μM Potentiation (%)” value amounted to 33% and the “Kv3.1 Activity at 10 μM Voltage Shift (mV)” value is −1.6 mV.
The matching figures for `COc1c(C)cc(Oc2cc(N3C(=O)NC(C)(C)C3=O)ncn2)cc1C` [Example 35, 3-[6-(4-methoxy-3,5-dimethyl-phenoxy)pyrimidin-4-yl]-5,5-dimethyl-imidazolidine-2,4-dione]: −10% and −0.4 mV.
The matching figures for `CCOc1cc(Oc2cc(N3C(=O)NC(C)(C)C3=O)ncn2)ccc1C` [Example 36, 3-[6-(3-ethoxy-4-methyl-phenoxy)pyrimidin-4-yl]-5,5-dimethyl-imidazolidine-2,4-dione]: 17% and −3.3 mV.
On the same counts, the results for `Cc1ccc(Oc2cc(N3C(=O)NC(C)(C)C3=O)ncn2)cc1OCC1CC1` [Example 37, 3-[6-[3-(cyclopropylmethoxy)-4-methyl-phenoxy]pyrimidin-4-yl]-5,5-dimethyl-imidazolidine-2,4-dione] are 16% and −1.0 mV.
With `Cc1ccc(Oc2cc(N3C(=O)NC(C)(C)C3=O)ncn2)cc1OC(C)C` [Example 38, 3-[6-(3-isopropoxy-4-methyl-phenoxy)pyrimidin-4-yl]-5,5-dimethyl-imidazolidine-2,4-dione], the “Kv3.1 Activity at 10 μM Potentiation (%)” value is 18% and the “Kv3.1 Activity at 10 μM Voltage Shift (mV)” value is reported as −2.0 mV.
The matching figures for `Cc1ccc(Oc2cc(N3C(=O)NC(C)(C)C3=O)ncn2)cc1OCC(C)C` [Example 39, 3-[6-(3-isobutoxy-4-methyl-phenoxy)pyrimidin-4-yl]-5,5-dimethyl-imidazolidine-2,4-dione]: 13% and −2.1 mV.
The matching figures for `COc1cccc(Oc2cc(N3C(=O)NC(C)(C)C3=O)ncn2)c1C(C)C` [Example 40, 3-[6-(2-isopropyl-3-methoxy-phenoxy)pyrimidin-4-yl]-5,5-dimethyl-imidazolidine-2,4-dione]: 23% and −2.1 mV.
The matching figures for `COc1cc(Oc2cc(N3C(=O)NC(C)(C)C3=O)ncn2)ccc1C(F)(F)F` [Example 42, 3-[6-[3-methoxy-4-(trifluoromethyl)phenoxy]pyrimidin-4-yl]-5,5-dimethyl-imidazolidine-2,4-dione]: 11% and “+2.0 mV”.
With `Cc1ccc(Oc2cc(N3C(=O)NC(C)(C)C3=O)ncn2)cc1OC(F)(F)F` [Example 44, 3-[6-[4-methyl-3-(trifluoromethoxy)phenoxy]pyrimidin-4-yl]-5,5-dimethyl-imidazolidine-2,4-dione], the “Kv3.1 Activity at 10 μM Potentiation (%)” value is recorded as 33% and the “Kv3.1 Activity at 10 μM Voltage Shift (mV)” value was −2.9 mV.
For `CC1(C)NC(=O)N(c2cc(Oc3ccc4c(c3)OC(F)(F)O4)ncn2)C1=O` [Example 45, 3-[6-[(2,2-difluoro-1,3-benzodioxol-5-yl)oxy]pyrimidin-4-yl]-5,5-dimethyl-imidazolidine-2,4-dione], the “Kv3.1 Activity at 10 μM Potentiation (%)” value turned out to be 19% and the “Kv3.1 Activity at 10 μM Voltage Shift (mV)” value was −1.7 mV.
Turning to `CC[C@@]1(C)NC(=O)N(c2nccc(Oc3ccc(C)c(OC)c3)n2)C1=O` [Example 48, (5R)-5-ethyl-3-[4-(3-methoxy-4-methyl-phenoxy)pyrimidin-2-yl]-5-methyl-imidazolidine-2,4-dione], the “Kv3.1 Activity at 10 μM Potentiation (%)” value is on record as 32% and the “Kv3.1 Activity at 10 μM Voltage Shift (mV)” value is listed as −2.1 mV.
The matching figures for `COc1cc(Oc2cncc(N3C(=O)NC(C)(C)C3=O)n2)ccc1F` [Example 54, 3-[6-(4-fluoro-3-methoxy-phenoxy)pyrazin-2-yl]-5,5-dimethyl-imidazolidine-2,4-dione]: 15% and −0.5 mV.
Consider `CC[C@H]1NC(=O)N(c2cc(Oc3ccc(C)c(OC)c3)ncn2)C1=O` [Example 55, (5R)-5-ethyl-3-[6-(3-methoxy-4-methyl-phenoxy)pyrimidin-4-yl]imidazolidine-2,4-dione], for which the “Kv3.1 Activity at 10 μM Potentiation (%)” value is 16% and the “Kv3.1 Activity at 10 μM Voltage Shift (mV)” value was −3.9 mV.
Take `CC[C@H]1NC(=O)N(c2nccc(Oc3ccc(C#N)cc3C(C)(C)C)n2)C1=O` [Example 57, 3-tert-butyl-4-[2-[(4R)-4-ethyl-2,5-dioxo-imidazolidin-1-yl]pyrimidin-4-yl]oxy-benzonitrile]: the “Kv3.1 Activity at 10 μM Potentiation (%)” value is on record as −7% and the “Kv3.1 Activity at 10 μM Voltage Shift (mV)” value was “+0.8 mV”.
Regarding `CC[C@H]1NC(=O)N(c2ccnc(Oc3ccc(C)c(OC)c3)n2)C1=O` [Example 59, (5R)-5-ethyl-3-[2-(3-methoxy-4-methyl-phenoxy)pyrimidin-4-yl]imidazolidine-2,4-dione], the “Kv3.1 Activity at 10 μM Potentiation (%)” value stood at 22% and the “Kv3.1 Activity at 10 μM Voltage Shift (mV)” value is given as −1.1 mV.
On the same counts, the results for `COc1cc(Oc2ccnc(N3C(=O)NC(C)(C)C3=O)n2)ccc1C` [Example 60, 3-[4-(3-methoxy-4-methyl-phenox)pyrimidin-2-yl]-5,5-dimethyl-imidazolidine-2,4-dione] are 22% and −2.0 mV.
The matching figures for `CC(C)c1cc(Oc2ccnc(N3C(=O)NC(C)(C)C3=O)n2)ccc1C#N` [Example 61, 4-[2-(4,4-dimethyl-2,5-dioxo-imidazolidin-1-yl)pyrimidin-4-yl]oxy-2-isopropyl-benzonitrile]: 21% and −1.6 mV.
The matching figures for `CC[C@@]1(C)NC(=O)N(c2ccnc(Oc3ccc(C)c(OC)c3)n2)C1=O` [Example 62, (5R)-5-ethyl-3-[2-(3-methoxy-4-methyl-phenoxy)pyrimidin-4-yl]-5-methyl-imidazolidine-2,4-dione]: 20% and −3.1 mV.
